Some test systems named below: UO-31 renal; HOP-92 NSCLC; SF-539 CNS; DU-145 prostate; RPMI-8226 leukemia; HS 578T breast; HCT-116 colon; OVCAR-5 ovarian; MOLT-4 leukemia; K-562 leukemia.
What all share (test): NCI-60 cell line screen, 48 h

The structures appear in SMILES notation.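 Cultured in 96-well plates, cells were exposed to test compound for 48 hours across five concentrations. Here, GI50 denotes the concentration required for 50% inhibition of growth. TGI: concentration producing complete growth inhibition.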 Bounds are passed on as bounds.

As to `N[C@H](C(=O)O)[C@@H]1CC(Cl)=NO1`, the GI50 was 26.6 µM in the experiment with UO-31 renal; 25.4 µM with SF-539 CNS; 99.6 µM in the experiment on DU-145 prostate; 11.1 µM with RPMI-8226 leukemia; 7.42 µM in the experiment with HS 578T breast; 3.71 µM in the experiment on HCT-116 colon. In addition, the GI50 was 5.21 µM in the experiment with MOLT-4 leukemia and 7.16 µM in the experiment on K-562 leukemia. Besides, the TGI with UO-31 renal is 772 µM; in the experiment on HOP-92 NSCLC, 541 µM; with SF-539 CNS, 916 µM; in the experiment with DU-145 prostate it was greater than 1000 µM; in the experiment with RPMI-8226 leukemia it was 811 µM; with HS 578T breast, greater than 1000 µM. The TGI with HCT-116 colon is greater than 1000 µM; in the experiment on OVCAR-5 ovarian, 648 µM; with MOLT-4 leukemia, greater than 806 µM; with K-562 leukemia it was greater than 944 µM.
On to `CSC(SC)(C(=O)O)c1cc(-c2c(Cl)cccc2Cl)no1`, for which the TGI in the experiment with UO-31 renal was 92.2 µM; in the experiment with HOP-92 NSCLC, greater than 100 µM; in the experiment on SF-539 CNS it was greater than 100 µM; in the experiment with DU-145 prostate, greater than 100 µM; in the experiment on RPMI-8226 leukemia it was 50.4 µM; with HS 578T breast, greater than 100 µM. Besides, the TGI in the experiment with HCT-116 colon, in the experiment on OVCAR-5 ovarian, in the experiment on MOLT-4 leukemia and in the experiment on K-562 leukemia was greater than 100 µM each time.
Turning to `CN(C)Cc1cc(C(F)(F)F)ccc1C(O)(c1ccccc1)c1ccccc1`, the TGI is 28.5 µM with UO-31 renal; 27 µM in the experiment with HOP-92 NSCLC; 32.7 µM in the experiment on SF-539 CNS; greater than 100 µM with DU-145 prostate; 21.5 µM with RPMI-8226 leukemia; greater than 100 µM in the experiment on HS 578T breast. The TGI in the experiment on HCT-116 colon was determined as 26.8 µM; in the experiment with OVCAR-5 ovarian, 36.9 µM; with MOLT-4 leukemia it was 38.8 µM; in the experiment with K-562 leukemia, 24.4 µM.
On to `COc1ccc2c(c1)OC1=C(C(=O)OC1)C2c1cc(OC)c2c(c1)OCCO2` (stereo unspecified), for which the GI50 was 0.071 µM in the experiment on UO-31 renal; 0.0629 µM with HOP-92 NSCLC; 0.048 µM in the experiment on SF-539 CNS; 0.0915 µM in the experiment on DU-145 prostate; 0.0871 µM with RPMI-8226 leukemia; 0.0361 µM with HS 578T breast. Besides, the GI50 with HCT-116 colon is 0.0478 µM; with OVCAR-5 ovarian, 0.126 µM; in the experiment with MOLT-4 leukemia, 0.182 µM; with K-562 leukemia, 0.0432 µM. For the same compound, the TGI in the experiment with UO-31 renal is greater than 100 µM; in the experiment with HOP-92 NSCLC, greater than 100 µM; in the experiment with SF-539 CNS it was greater than 100 µM; in the experiment on RPMI-8226 leukemia, greater than 100 µM; in the experiment on HS 578T breast it was greater than 100 µM; with HCT-116 colon, greater than 31.9 µM. In addition, the TGI in the experiment on OVCAR-5 ovarian, in the experiment with MOLT-4 leukemia and in the experiment on K-562 leukemia was greater than 100 µM each time.
For `O=C(Oc1ccc[nH]c1=O)c1cc([N+](=O)[O-])cc([N+](=O)[O-])c1`, the GI50 is 23.6 µM in the experiment on UO-31 renal; greater than 100 µM in the experiment with HOP-92 NSCLC; greater than 100 µM in the experiment with SF-539 CNS; greater than 100 µM in the experiment on DU-145 prostate; greater than 100 µM in the experiment with RPMI-8226 leukemia; greater than 100 µM in the experiment with HS 578T breast. Moreover, the GI50 is greater than 100 µM in the experiment on HCT-116 colon, greater than 100 µM in the experiment with OVCAR-5 ovarian, greater than 100 µM in the experiment on MOLT-4 leukemia and 34.9 µM with K-562 leukemia. Also, the TGI with UO-31 renal, with HOP-92 NSCLC, in the experiment on SF-539 CNS, with DU-145 prostate, in the experiment on RPMI-8226 leukemia and in the experiment on HS 578T breast was greater than 100 µM throughout. Also, the TGI in the experiment on HCT-116 colon, with OVCAR-5 ovarian, in the experiment with MOLT-4 leukemia and with K-562 leukemia was greater than 100 µM each time.
Regarding `Cn1c(Cl)c(/C=C2/C(=O)Nc3ccccc32)c2ccccc21`, the GI50 is 3.39 µM in the experiment with UO-31 renal; 13.4 µM with HOP-92 NSCLC; 0.17 µM in the experiment with SF-539 CNS; 1.4 µM with DU-145 prostate; 0.582 µM with RPMI-8226 leukemia; 0.248 µM with HS 578T breast. Further, the GI50 with HCT-116 colon was 0.306 µM; with OVCAR-5 ovarian it was 3.85 µM; with MOLT-4 leukemia, 0.139 µM; with K-562 leukemia it was 0.0601 µM. For the same compound, the TGI in the experiment on UO-31 renal was 44.7 µM; in the experiment on HOP-92 NSCLC, greater than 100 µM; with SF-539 CNS, 1.06 µM; with DU-145 prostate, 15.8 µM; in the experiment with RPMI-8226 leukemia it was 4.6 µM; in the experiment on HS 578T breast, 2.03 µM. In addition, the results for the TGI in the experiment with HCT-116 colon, in the experiment with OVCAR-5 ovarian and in the experiment with K-562 leukemia were 12.3 µM, 27.8 µM and greater than 100 µM, respectively.
`CC(C)C(O)(C(C)C)C(C)C`: the TGI with UO-31 renal, in the experiment on HOP-92 NSCLC, with SF-539 CNS, in the experiment on DU-145 prostate, in the experiment on RPMI-8226 leukemia and with HS 578T breast was greater than 100 µM each time. The TGI in the experiment with HCT-116 colon, with OVCAR-5 ovarian, with MOLT-4 leukemia and in the experiment with K-562 leukemia was greater than 100 µM throughout.
For `NC(CSC(c1ccccc1)(c1ccccc1)c1ccccc1)C(=O)NCC(=O)O` (stereo unspecified), the GI50 in the experiment with UO-31 renal was 31.3 µM; with HOP-92 NSCLC, 5.01 µM; with SF-539 CNS, 2.54 µM; in the experiment on DU-145 prostate it was 18.9 µM; with RPMI-8226 leukemia, 3.42 µM; with HS 578T breast, 3.29 µM. Moreover, the GI50 with HCT-116 colon is 3.97 µM; with OVCAR-5 ovarian, 22.5 µM; with MOLT-4 leukemia, 16 µM; in the experiment with K-562 leukemia, 3.19 µM. Besides, the TGI with UO-31 renal is greater than 100 µM; in the experiment with HOP-92 NSCLC, greater than 100 µM; in the experiment on SF-539 CNS it was 7.46 µM; with DU-145 prostate, greater than 100 µM; in the experiment on RPMI-8226 leukemia, 24.5 µM; in the experiment with HS 578T breast, 25.1 µM. The TGI in the experiment on HCT-116 colon is greater than 100 µM; in the experiment on OVCAR-5 ovarian it was greater than 100 µM; in the experiment on MOLT-4 leukemia, 86.3 µM; in the experiment with K-562 leukemia, greater than 100 µM.
For `Cc1cc(N(CC(C)Br)CC(C)Br)ccc1N=Nc1ccccc1C(=O)O` (stereo unspecified), the TGI in the experiment on UO-31 renal was 37.5 µM; in the experiment on HOP-92 NSCLC it was 10 µM; in the experiment with SF-539 CNS it was 4.39 µM; with DU-145 prostate, 20 µM; with RPMI-8226 leukemia it was 7.24 µM; in the experiment on HS 578T breast, 49.2 µM. Moreover, the TGI with HCT-116 colon was 20.3 µM; in the experiment on OVCAR-5 ovarian, 10.2 µM; in the experiment with MOLT-4 leukemia, greater than 100 µM; in the experiment with K-562 leukemia, 4.8 µM.

Values taken from PubChem BioAssay (NCI).
